Drawing on patent publication US10065928B2, “Quinolinone compound and use thereof” (Sunshine Lake Pharma Co., Ltd., priority 2014, dated 2018), this text covers EC50 for 10 compounds.

SMILES strings stand for the structures. pEC50: −log10 of the molar value.

This assay has as its system erythropoietin (EPO) production in Hep3B cells. Briefly: Activity in inducing erythropoietin (EPO) production in vitro, Hep3B cells, EPO ELISA. The assay is classed as cell-based. The note with it: Homo sapiens, 24 h, EPO in supernatant by ELISA. As to the method:
The activities of compounds of the invention in inducing erythropoietin (EPO) production were assessed by using human live cancer cell strain Hep3B (ATCC: American type culture collection, Manassas, Va.). Hep3B cells seeded in a 96-well plate with a density of 2.5×10^4 cells/well were cultivated overnight in DMEM culture medium (Dulbecco's Modified Eagle's Medium) at 37° C. in the presence of 10% fetal bovine serum (FBS). The next day, the supernatant liquid of culture medium was abandoned by suction, and to the residue was added fresh DMEM (containing 0.5% DMSO, 0.5% FBS) containing compound of the invention with a series of concentrations (0.31160.00 μM) or containing solvent used for comparison. The cells were cultivated at 37° C. for 24 h. The supernatant liquid was collected and the EPO concentration of the supernatant was quantified by using human EPO ELISA kit (Abcam). The activity of each compound in inducing erythropoietin (EPO) production was represented by half maximal effective concentration (EC50).
A general note: ELISA stands for enzyme-linked immunosorbent assay.
Compound `Cn1c(=O)c(C(=O)NCC(=O)O)c(O)c2cc(Oc3ccccc3)ccc21` [Example 5, 2-(4-hydroxy-1-methyl-2-oxo-6-phenoxy-1,2-dihydroquinoline-3-carboxamido)acetic acid] gave a pEC50 of 5.40.
To `Cn1c(=O)c(C(=O)NCC(=O)O)c(O)c2ccc(Oc3ccc(Cl)cc3Cl)cc21` [Example 31, 2-(7-(2,4-dichlorophenoxy)-4-hydroxy-1-methyl-2-oxo-1,2-dihydroquinoline-3-carboxamido)acetic acid] belongs 5.38; to `Cn1c(=O)c(C(=O)NCC(=O)O)c(O)c2ccc(Oc3cc(F)ccc3Cl)cc21` [Example 27, 2-(7-(2-chloro-5-fluorophenoxy)-4-hydroxy-1-methyl-2-oxo-1,2-dihydroquinoline-3-carboxamido)acetic acid], 5.16.
On to `COc1cccc(Oc2ccc3c(O)c(C(=O)NCC(=O)O)c(=O)n(C)c3c2)c1` [Example 37, 2-(4-hydroxy-7-(3-methoxyphenoxy)-1-methyl-2-oxo-1,2-dihydroquinoline-3-carboxamido)acetic acid], for which the negative logarithm of the EC50 (pEC50) was 5.20.
On to `Cn1c(=O)c(C(=O)NCC(=O)O)c(O)c2ccc(Oc3ccc4ccccc4c3)cc21` [Example 8, 2-(4-hydroxy-1-methyl-7-(naphthalen-2-yloxy)-2-oxo-1,2-dihydroquinoline-3-carboxamido)acetic acid], for which the pEC50 was 5.79.
For the compound `Cn1c(=O)c(C(=O)NCC(=O)O)c(O)c2ccc(Oc3cc(F)cc(Cl)c3)cc21` [Example 26, 2-(7-(3-chloro-5-fluorophenoxy)-4-hydroxy-1-methyl-2-oxo-1,2-dihydroquinoline-3-carboxamido)acetic acid], the pEC50 was 4.87.
The same measure for `Cn1c(=O)c(C(=O)NCC(=O)O)c(O)c2ccc(Oc3ccncc3)cc21` [Example 43, 2-(4-hydroxy-1-methyl-2-oxo-7-(pyridin-4-yloxy)-1,2-dihydroquinoline-3-carboxamido)acetic acid]: 4.54; for `Cn1c(=O)c(C(=O)NCC(=O)O)c(O)c2ccc(Oc3ccccc3OC(F)(F)F)cc21` [Example 40, 2-(4-hydroxy-1-methyl-2-oxo-7-(2-(trifluoromethoxy)phenoxy)-1,2-dihydroquinoline-3-carboxamido)acetic acid]: 5.39; for `Cn1c(=O)c(C(=O)NCC(=O)O)c(O)c2ccc(Oc3ccc(Cl)cc3F)cc21` [Example 21, 2-(7-(4-chloro-2-fluorophenoxy)-4-hydroxy-1-methyl-2-oxo-1,2-dihydroquinoline-3-carboxamido)acetic acid]: 5.24.
To `Cn1c(=O)c(C(=O)NCC(=O)O)c(O)c2ccc(Oc3ccc(F)c(F)c3)cc21` [Example 17, 2-(7-(3,4-difluorophenoxy)-4-hydroxy-1-methyl-2-oxo-1,2-dihydroquinoline-3-carboxamido)acetic acid] belongs 5.50.

A word on the pEC50: it is the negative decadic logarithm of the EC50, by convention in mol/L. Read a high pEC50 as a low EC50.
